Assay results reported in PubChem BioAssay (NCI).
Where “and” joins values, the source holds several entries; their conditions need not be identical. Equal entries are not always repeated.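 Results reflect a 48-hour exposure of cells in 96-well plates to compound at five concentrations. Abbreviation: GI50, concentration required for 50% inhibition of growth. TGI: concentration producing complete growth inhibition.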

How the values were obtained:
Assay in all cases: NCI-60 cell line screen, 48 h
A549 NSCLC = tested on: A549 NSCLC
ACHN renal = tested on: ACHN renal
CCRF-CEM leukemia = tested on: CCRF-CEM leukemia
COLO 205 colon = tested on: COLO 205 colon
HCC-2998 colon = tested on: HCC-2998 colon
HT29 colon = tested on: HT29 colon
NCI-H460 lung = tested on: NCI-H460 lung
OVCAR-4 ovarian = tested on: OVCAR-4 ovarian
OVCAR-8 ovarian = tested on: OVCAR-8 ovarian
UO-31 renal = tested on: UO-31 renal

SMILES | GI50 (A549 NSCLC) [µM] | TGI (A549 NSCLC) [µM] | GI50 (ACHN renal) | TGI (ACHN renal) [µM] | GI50 (CCRF-CEM leukemia) [µM] | TGI (CCRF-CEM leukemia) [µM] | GI50 (COLO 205 colon) [µM] | TGI (COLO 205 colon) [µM] | GI50 (HCC-2998 colon) [µM] | GI50 (HT29 colon) [µM] | TGI (HT29 colon) [µM] | GI50 (NCI-H460 lung) | TGI (NCI-H460 lung) [µM] | GI50 (OVCAR-4 ovarian) [µM] | TGI (OVCAR-4 ovarian) [µM] | GI50 (OVCAR-8 ovarian) | TGI (OVCAR-8 ovarian) [µM] | GI50 (UO-31 renal) [µM] | TGI (UO-31 renal) [µM] | TGI (HCC-2998 colon) [µM]
c1cncc(CNc2ccccc2-c2nnc(Nc3ccc4c(c3)OCO4)o2)c1 | 0.0686 | > 100 | 0.717 µM | > 100 | 0.0801 | > 100 | 0.0411 | 0.551 | 0.113 | 0.037 | 1.27 | 0.0435 µM | > 100 | 1 | > 100 | 0.127 µM | > 100 | 0.31 | > 100 | 
O=C(Oc1cccnc1)c1ccccc1Nc1ccnc(C(F)(F)F)c1 | 0.589 | > 100 | 0.353 µM | > 74.6 | 0.0334 | > 100 | 0.156 | 0.363 | 0.363 | 0.0487 |  | 0.342 µM | > 35 | 0.207 | > 100 | 0.413 µM | > 100 | 3.84 | > 87.3 | 15.1
N#Cc1ccc(Oc2nccc(-c3c(-c4ccc(F)cc4)ncn3C3CCNCC3)n2)cc1 | > 16.3 | > 25 | > 23.7 µM | > 25 | 7.79 | 24.7 | > 25 | > 25 | 18.6 | 3.76 | 8.03 | 14 µM | > 25 | > 25 | > 25 | > 16.6 µM | > 25 | 11.9 | > 25 | > 25
CCN1CCN(CCOc2ccc(CNc3ccc4nc(CCC5CCCCC5)[nH]c4c3)cc2)CC1 | 2.61 | 8.13 | 2.79 µM | 7.96 | 1.61 | 8.75 | 1.76 | 3.52 | 2.22 | 0.563 | 2.38 | 2.47 µM | 7.27 | 2.61 | 11.1 | 2.45 µM | 7.04 | 1.42 | 2.79 | 5.07
CCCCCCCCCCCCCCCCOC(=O)C(C(=O)OCCCCCCCCCCCCCCCC)[N+](C)(C)CCOC(C)=O |  | 42.6 |  | 34.9 |  | 28.6 |  | 36 |  |  | 25.9 |  | 80.6 |  | 32.4 |  | 37.3 |  | 34.2 | 30.7
COC(=O)[C@]12CC[C@@H](C)[C@H](C)[C@@H]1C1=CC[C@@H]3[C@@]4(C)C[C@@H](OC(=O)c5ccco5)[C@H](O)[C@@](C)(CO)[C@@H]4[C@H](O)C[C@@]3(C)[C@]1(C)CC2 | 2.44 | 7.05 | 2.76 µM | 7.69 | 2.41 | 5.77 | 1.82 | 3.44 | 1.95 | 1.8 | 3.41 | 1.97 µM | 3.87 | 3.41 | 13.5 | 3.37 µM | 10.4 | 2.02 | 7.42 | 3.73
Nc1nc(N)c2cc(CNc3ccc(Cl)c(Cl)c3)ccc2n1 | 0.0631 | 1.34 | 0.495 µM | 1.71 | 0.395 | 1.88 | 1.11 | 2.33 | 0.64 | 0.287 | 1.65 | 0.0609 µM | 1.32 | 1.16 | 2.37 | 0.513 µM | 1.75 | 0.865 | 2.17 | 2
CC1=C(C(=O)Nc2cccc(C(F)(F)F)c2)C(c2ccc(O)cc2)C(C(=O)Nc2cccc(C(F)(F)F)c2)=C(C)N1 |  | > 100 |  | 96.2 |  | 66.4 |  | 27 |  |  | 31.7 |  | 43.1 |  | 86.6 |  | 76.6 |  | 53.5 | 36.3
CCc1cccc(C(C)CC)c1N=C(NC(=O)c1ccccc1C(=O)NC(=Nc1c(CC)cccc1C(C)CC)SC)SC (configuration not stated) |  | > 100 |  | > 100 |  | > 100 |  | > 100 |  |  | > 100 |  | > 100 |  | > 100 |  | > 100 |  | > 100 | > 100
N/C(=N\O)c1ncc(-c2ccc(C(F)(F)F)cc2)c(NC2CCCCCC2)n1 | 2.34 | 11.1 | 4.49 µM and 2.23 µM | 13.3 | 2.46 | 11.8 | 3.44 | 10.6 | 3.92 | 3.24 | 10.4 | 6.6 µM and 2.6 µM | 9.34 | 2.72 | 15 | 4.6 µM and 2.19 µM | 13.4 |  | 10.9 | 14.3
Nc1nnc2nc(CC(=O)/C=C/c3ccccc3)c(=O)[nH]n12 |  | > 100 |  | > 100 |  | > 100 |  | > 100 |  |  | > 100 |  | > 100 |  | > 100 |  | > 100 |  | > 100 | > 100
CCSC1(SCC)CCN(C=NC(C)(C)C)C1 |  | > 100 |  | > 100 |  | > 100 |  | > 100 |  |  | > 100 |  | > 100 |  | > 100 |  | > 100 |  | > 100 | > 100
COc1c(OC(C)=O)cc2c(OC(C)=O)c1CC(C)CC(OC)C(O)C(C)/C=C(\C)C(OC(N)=O)C(OC)/C=C\C=C(/C)C(=O)N2 (configuration not stated) |  | > 100 |  | > 100 |  | 98.3 |  | > 100 |  |  | > 100 |  | > 100 |  | > 100 |  | > 100 |  | > 100 | > 100
COc1ccc(CN2c3ccccc3Sc3ccccc32)cc1F | 0.675 | > 100 | 1.25 µM | > 100 | 0.407 | > 100 | 0.31 | 1.36 | 1.11 | 0.352 | > 100 | 0.379 µM | > 100 | 0.964 | > 100 | 0.712 µM | > 100 | 1.12 | > 100 | > 35.8
